From patent US10836789B2, “Inhibitors of glucocorticoid receptor” (ORIC Pharmaceuticals, Inc., priority 2016, dated 2020)
pIC50: −log10 of the molar value.

Legend:
GR = target: T1, GR (Homo sapiens, UniProt P04150); assay: GR luciferase antagonist assay (CHO/GR/MMTV Luciferase cells); format: cell-based; conditions: 10 nM Dexamethasone final, 16-18 h
T1 construct: expressed in transfected cells; host or cells: CHO cells carrying GR and an MMTV-luciferase reporter
T1 sequence (P04150 1-777): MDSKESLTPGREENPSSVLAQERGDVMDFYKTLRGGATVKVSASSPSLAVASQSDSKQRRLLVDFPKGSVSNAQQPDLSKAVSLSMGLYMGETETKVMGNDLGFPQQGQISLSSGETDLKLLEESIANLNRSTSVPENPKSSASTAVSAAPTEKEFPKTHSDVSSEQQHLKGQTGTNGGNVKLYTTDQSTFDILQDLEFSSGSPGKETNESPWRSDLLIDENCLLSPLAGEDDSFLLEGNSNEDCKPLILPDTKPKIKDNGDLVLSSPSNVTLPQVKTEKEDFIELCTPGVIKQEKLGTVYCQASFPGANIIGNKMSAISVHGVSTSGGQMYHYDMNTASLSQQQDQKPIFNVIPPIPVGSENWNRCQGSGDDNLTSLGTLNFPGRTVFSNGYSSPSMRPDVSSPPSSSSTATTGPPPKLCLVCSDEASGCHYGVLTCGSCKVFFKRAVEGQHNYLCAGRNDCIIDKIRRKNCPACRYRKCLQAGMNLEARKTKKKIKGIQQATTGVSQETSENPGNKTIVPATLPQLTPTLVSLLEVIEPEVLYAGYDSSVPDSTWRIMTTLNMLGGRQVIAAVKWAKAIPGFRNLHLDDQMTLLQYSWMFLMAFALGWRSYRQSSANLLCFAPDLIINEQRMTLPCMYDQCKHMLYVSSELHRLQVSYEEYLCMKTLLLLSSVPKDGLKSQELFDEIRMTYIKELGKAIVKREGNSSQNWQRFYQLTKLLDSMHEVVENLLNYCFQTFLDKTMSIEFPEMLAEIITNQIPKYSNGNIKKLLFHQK
Protocol: Example A: […] GR Luciferase Assay Cell Line: CHO/GR/MMTV Luciferase Culture Media: DMEM (with phenol red)+10% FBS Assay Media: DMEM (without phenol red)+10% CSS A 1×10 cm plate of cells was split into 2×15 cm plates in Assay Media (CSS). After 4 days, the cells in the Assay Media were collected and counted. Antagonist Assay: 1.5×10^4 cells per well were plated in a 384-well white walled TC plate in 20 ul of Assay Media containing 12.5 nM Dexamethasone (final concentration=10 nM). The plates were covered with film to avoid evaporation and placed in a TC incubator. Media/drug dilutions were prepared in Assay Media in 96-well sterile plates. 100 ul of Assay Media was distributed in aliquots into 96-well plates with an 8-Channel pipette (20-200 ul). 0.5 ul of 1000× concentration of compounds were added to the plates with 8-Channel pipette (0.5-10 ul). The plates were shaken for 15 seconds to mix. The film was removed from the 384-well plates with assay cells. 5 ul of media/drug dilutions were added to appropriate wells. The plates were covered with film to avoid evaporation and placed in a TC incubator overnight. After 16-18 h in the incubator, the plates were removed and sat at room temperature for 10 minutes to equilibrate. The Reagent Dispenser was setup to distribute 25 ul aliquots of OneGlo Luciferase Reagent (at room temperature) to each well of the 384-well plate using standard cassette. After OneGlo was added to the plates, the plates were shaken briefly, then incubated in the dark at room temperature for about 3 minutes. The plates were read using a Tecan or Promega luminometer. The ability of the compounds disclosed herein to inhibit GR activity was quantified and the respective IC50 value was determined. Table 3 provides the cellular IC50 values of various substituted steroidal compounds disclosed herein.

AR = AR agonism assay in LNAR reporter cell line; format: cell-based; conditions: LNAR cells (overexpressed AR, 4XARE-Luc), 10% CSS, 18-24 hrs; Mifepristone maximum response set to 1
Protocol: Example B: In Vitro AR Agonism Assay
The AR agonism assay was done in the LNAR reporter cell line which has overexpressed AR and 4XARE-Luc genes. This cell line is sensitive to even minor partial AR agonism activity in hormone-deprived media (CSS). The assays were done in RPMI (without phenol red)+10% CSS using 6000 LNAR cells/well in 384-well plates and compounds were incubated with cells in […] incubator for 18-24 hrs. OneGlo reagent (25 uL/well) was added and plates were read with luminometer within 3 minutes.
To gauge the AR partial agonism activity, Mifepristone is included as a standard in the assay. AR agonism assay results are quantified by determining the ratio of the maximum response of individual compounds to the maximum response of Mifepristone (arbitrarily set to 1). Values of Table 4 are reported as Relative Maximum Response to Mifepristone. This general trend of AR agonism was shown for the class of compounds described herein.

| Compound | pIC50 (GR) | Relative Maximum Response to Mifepristone (AR) |
| --- | --- | --- |
| CC(C)Nc1ccc([C@H]2C[C@@]3(C)[C@@H](CC[C@@]3(O)C#CC(C)(C)C)[C@@H]3CCC4=CC(=O)CC[C@@H]4[C@H]32)cc1 [Compound 10, (8R,9S,10R,11S,13S,14S,17S)-17-(3,3-Dimethylbut-1-yn-1-yl)-17-hydroxy-11-(4-(isopropylamino)phenyl)-13-methyl-1,2,6,7,8,9,10,11,12,13,14,15,16,17-tetradecahydro-3H-cyclopenta[a]phenanthren-3-one] | ≥ 7.00 | A (A: ≤ 0.4) |
| CC(C)(C)C#C[C@]1(O)CC[C@H]2[C@@H]3CCC4=CC(=O)CC[C@@H]4[C@H]3[C@@H](c3ccc(N4CCOCC4)cc3)C[C@@]21C [Compound 7, (8R,9S,10R,11S,13S,14S,17S)-17-(3,3-Dimethylbut-1-yn-1-yl)-17-hydroxy-13-methyl-11-(4-morpholinophenyl)-1,2,6,7,8,9,10,11,12,13,14,15,16,17-tetradecahydro-3H-cyclopenta[a]phenanthren-3-one] | ≥ 7.00 | A (A: ≤ 0.4) |
| COC(C)(C)C#C[C@]1(O)CC[C@H]2[C@@H]3CCC4=CC(=O)CC[C@@H]4[C@H]3[C@@H](c3ccc(N(C)C(C)C)cc3)C[C@@]21C [Compound 4, (8R,9S,10R,11S,13S,14S,17S)-17-Hydroxy-11-(4-(isopropyl(methyl)amino)phenyl)-17-(3-methoxy-3-methylbut-1-yn-1-yl)-13-methyl-1,2,6,7,8,9,10,11,12,13,14,15,16,17-tetradecahydro-3H-cyclopenta[a]phenanthren-3-one] | ≥ 7.00 | A (A: ≤ 0.4) |
| CC(C)N(C)c1ccc([C@H]2C[C@@]3(C)[C@@H](CC(C)[C@@]3(O)C#CC(C)(C)C)[C@@H]3CCC4=CC(=O)CC[C@@H]4[C@H]32)cc1 (single isomer, unassigned) [Compound 8] | ≥ 7.00 | A (A: ≤ 0.4) |
| CC(C)(C)C#C[C@]1(O)CC[C@H]2[C@@H]3CCC4=CC(=O)CC[C@@H]4[C@H]3[C@@H](c3ccc(N4CCN(C(=O)OC(C)(C)C)CC4)cc3)C[C@@]21C [Compound 25] | ≥ 7.00 | A (A: ≤ 0.4) |
| CC#C[C@]1(O)CC[C@H]2[C@@H]3CCC4=CC(=O)CC[C@]4(C)[C@H]3[C@@H](c3ccc(N(C)C(C)C)cc3)C[C@@]21C [Compound 19] | < 7.00 | A (A: ≤ 0.4) |
| COCC#C[C@]1(O)CC[C@H]2[C@@H]3CCC4=CC(=O)CC[C@]4(C)[C@H]3[C@@H](c3ccc(N(C)C)cc3)C[C@@]21C [Compound 17, (8S,9R,10R,11S,13S,14S,17S)-11-(4-(Dimethylamino)phenyl)-17-hydroxy-17-(3-methoxyprop-1-yn-1-yl)-10,13-dimethyl-1,2,6,7,8,9,10,11,12,13,14,15,16,17-tetradecahydro-3H-cyclopenta[a]phenanthren-3-one] | < 7.00 | A (A: ≤ 0.4) |
| CCC(C)(C)C#C[C@]1(O)CC[C@H]2[C@@H]3CCC4=CC(=O)CC[C@@H]4[C@H]3[C@@H](c3ccc(N(C)C)cc3)C[C@@]21C [Compound 6, (8R,9S,10R,11S,13S,14S,17S)-11-(4-(Dimethylamino)phenyl)-17-(3,3-dimethylpent-1-yn-1-yl)-17-hydroxy-13-methyl-1,2,6,7,8,9,10,11,12,13,14,15,16,17-tetradecahydro-3H-cyclopenta[a]phenanthren-3-one] | ≥ 7.00 | A (A: ≤ 0.4) |
| CC(C)(C)C#C[C@]1(O)CC[C@H]2[C@@H]3CCC4=CC(=O)CC[C@@H]4[C@H]3[C@@H](c3ccc(N4CCS(=O)(=O)CC4)cc3)C[C@@]21C [Compound 22] | ≥ 7.00 | A (A: ≤ 0.4) |
